For 13 compounds, IC50 results are on record in US9546150B2, “Substituted quinazolin-4-ones for inhibiting ubiquitin specific protease 7” (HYBRIGENICS SA, priority 2011, dated 2017).

Type in all cases: biochemical
The target of one test is T1, UCH-L1 (Homo sapiens, UniProt P09936).
T1 sequence (P09936 1-223): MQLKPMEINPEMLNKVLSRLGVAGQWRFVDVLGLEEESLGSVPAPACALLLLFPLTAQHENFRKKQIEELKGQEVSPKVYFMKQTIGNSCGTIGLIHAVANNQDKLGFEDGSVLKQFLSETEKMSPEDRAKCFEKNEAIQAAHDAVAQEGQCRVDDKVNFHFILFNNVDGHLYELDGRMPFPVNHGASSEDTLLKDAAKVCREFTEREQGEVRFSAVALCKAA
Briefly: UCH-L1 activity assay, Ub-AMC substrate. Conditions: UbAMC substrate 300 nM, UCH-L1 2.5 nM. The method, then:
UCH-L1 was diluted in USP buffer (50 mM Tris HCl; 0.5 mM EDTA; 5 mM DTT (Dithiothreitol); 0.01% Triton X-100; Bovine Serum Albumin 0.05 mg·ml^−1 pH7.6). Compounds stocks (100 mM) were stored at −20° C. in DMSO. Compounds were tested at different concentrations: from 200 μM to 91 nM.
(§1) Reactions were performed as duplicates in Black 384 well plates (small volume microplates; Greiner; 10 μl final reaction volume). The substrate concentration for UCH-L1 was 300 nM Ub-AMC (Boston Biochem). The concentration of the enzyme (UCH-L1) in specificity assays was 2.5 nM. The concentrations were determined in order to perform specificity assays under initial velocities at fixed substrate concentration. Compounds were pre-incubated with enzymes for 30 minutes at 25° C. Reactions were initiated by addition of substrate to the plates containing the enzymes (+/− compounds) diluted in assay buffer. Reactions were incubated for 60 minutes at 37° C. Reactions were stopped by adding acetic acid (100 mM final). Readings were performed on a Pherastar Fluorescent Reader (BMG). λ Emission 380 nm; λ Excitation=460 nm.

Another test deals with T2, UCH-L3 (Homo sapiens, UniProt P15374).
T2 sequence (P15374 1-230): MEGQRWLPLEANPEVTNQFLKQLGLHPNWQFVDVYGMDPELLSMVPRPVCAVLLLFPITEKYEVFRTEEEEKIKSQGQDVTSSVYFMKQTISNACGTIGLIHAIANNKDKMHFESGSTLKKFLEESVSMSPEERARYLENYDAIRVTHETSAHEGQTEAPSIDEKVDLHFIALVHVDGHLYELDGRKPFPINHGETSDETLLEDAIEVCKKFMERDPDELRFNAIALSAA
Briefly: UCH-L3 activity assay, Ub-AMC substrate. Conditions: UbAMC substrate 300 nM, UCH-L3 13 pM. The method, then: UCH-L3 was diluted in USP buffer (50 mM Tris HCl; 0.5 mM EDTA; 5 mM DTT; 0.01% Triton X-100; Bovine Serum Albumin 0.05 mg·ml^−1 pH7.6). Compounds stocks (100 mM) were stored at −20° C. in DMSO. Compounds were tested at different concentrations: from 200 μM to 91 nM.
as §1, with “UCH-L3” for “UCH-L1”, “(UCH-L3)” for “(UCH-L1)”, “13 pM.” for “2.5 nM.”

Another test has as its target T3, Caspase 3 (Homo sapiens, UniProt P42574).
T3 sequence (P42574 29-175 limits assumed): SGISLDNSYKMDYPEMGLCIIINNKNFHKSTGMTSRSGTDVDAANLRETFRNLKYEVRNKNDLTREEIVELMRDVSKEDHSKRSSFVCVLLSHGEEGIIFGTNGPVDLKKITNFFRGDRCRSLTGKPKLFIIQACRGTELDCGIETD
T3 sequence (P42574 176-277 limits assumed): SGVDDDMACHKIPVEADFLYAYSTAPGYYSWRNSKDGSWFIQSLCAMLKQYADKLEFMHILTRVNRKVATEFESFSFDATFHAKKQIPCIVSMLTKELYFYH
Briefly: Caspase 3 activity assay, Ac-DEVD-AMC substrate. Conditions: Ac-DEVD-AMC 250 nM, Caspase 3 1.6 nM. As to the method: Caspase 3 was diluted in Caspase 3 buffer (100 mM Hepes pH 7.5; 10% sucrose; 0.1% CHAPS). Compounds stocks (100 mM) were stored at −20° C. in DMSO. Compounds were tested at different concentrations: from 200 μM to 91 nM.
as §1, with “caspase 3 specificity assay” for “UCH-L1”, “250” for “300”, “(Ac-DEVD-AMC; Promega).” for “Ub-AMC (Boston Biochem).”, “(Caspase 3)” for “(UCH-L1)”, “1.6” for “2.5”

In a further test the target is USP7 (Homo sapiens, UniProt Q93009). Briefly: GST-Ub52-Flag HTRF deubiquitinating enzyme assay, USP7. On the set-up: Full-length wild-type human USP7 and its catalytic mutant; His tag (pFastBac-HT vector) (N); made in house; host or cells: Spodoptera frugiperda Sf9 (or High Five) insect cells, baculovirus. Conditions: GST-Ub52-Flag substrate, USP7 200 pM. The method, then:
Bacmid DNA was prepared by an alkaline lysis procedure. The integrity of the bacmid minipreps and their orientation were checked by PCR, using generic and specific primers. Sf9 insect cells were cultured in InsectXpress medium (Cambrex) at 27° C. and transfected with the corresponding bacmid, using GeneShuttle 40 (Q-BIOgen). Viruses were recovered in the supernatant 72 h after transfection. Viruses were amplified by infecting insect cells (Sf9 or High Five cells; invitrogen) in 50 ml InsectXpress medium in a 150 cm^2 cell culture flask with 500 μl of the supernatant from transfected Sf9 cells. Following the second round of amplification, infected cells were recovered by rapid SDS lysis, boiled for 5 min at 100° C., sonicated briefly and centrifuged for 20 min at 14,000 g.
Flow Through was recovered.

Structures are written as SMILES.

USP7, sequence (Q93009 whole entry): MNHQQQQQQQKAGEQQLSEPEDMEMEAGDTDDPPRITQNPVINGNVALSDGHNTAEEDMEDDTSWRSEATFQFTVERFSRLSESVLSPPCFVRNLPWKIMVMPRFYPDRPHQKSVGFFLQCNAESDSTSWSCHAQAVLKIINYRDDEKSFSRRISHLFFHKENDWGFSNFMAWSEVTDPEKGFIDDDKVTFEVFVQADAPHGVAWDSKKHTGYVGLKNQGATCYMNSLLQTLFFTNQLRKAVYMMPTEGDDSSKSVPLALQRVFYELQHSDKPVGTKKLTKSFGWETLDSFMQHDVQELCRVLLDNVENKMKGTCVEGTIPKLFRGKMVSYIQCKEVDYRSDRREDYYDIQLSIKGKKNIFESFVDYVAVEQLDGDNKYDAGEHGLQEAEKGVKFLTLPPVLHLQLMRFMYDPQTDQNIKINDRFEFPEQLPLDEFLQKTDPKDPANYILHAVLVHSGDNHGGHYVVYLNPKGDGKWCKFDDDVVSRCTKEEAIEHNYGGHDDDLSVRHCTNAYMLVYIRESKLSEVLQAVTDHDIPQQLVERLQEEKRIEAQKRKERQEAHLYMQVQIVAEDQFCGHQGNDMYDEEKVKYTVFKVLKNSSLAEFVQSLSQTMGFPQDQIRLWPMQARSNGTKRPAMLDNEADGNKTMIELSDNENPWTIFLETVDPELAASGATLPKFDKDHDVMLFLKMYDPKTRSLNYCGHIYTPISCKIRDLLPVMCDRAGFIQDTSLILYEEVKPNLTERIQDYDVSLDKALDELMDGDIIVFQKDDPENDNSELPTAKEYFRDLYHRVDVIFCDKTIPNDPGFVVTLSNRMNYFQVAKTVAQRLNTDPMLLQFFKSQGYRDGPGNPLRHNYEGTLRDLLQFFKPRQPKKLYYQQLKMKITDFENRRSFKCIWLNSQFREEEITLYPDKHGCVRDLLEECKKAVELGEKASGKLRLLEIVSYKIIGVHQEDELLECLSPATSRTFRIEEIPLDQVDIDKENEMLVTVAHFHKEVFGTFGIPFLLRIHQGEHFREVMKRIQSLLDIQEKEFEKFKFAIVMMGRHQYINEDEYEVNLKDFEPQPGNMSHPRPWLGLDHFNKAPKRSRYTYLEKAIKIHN

In the case of `COc1ccccc1CCC(=O)N1CCC(O)(Cn2cnc3ccccc3c2=O)CC1` [Example 10, 3-({4-hydroxy-1-[3-(2-methoxyphenyl)propanoyl]piperidin-4-yl}methyl)-3,4-dihydroquinazolin-4-one], the concentration for half-maximal inhibition (IC50) on UCH-L1, against UCH-L3, against Caspase 3 and against USP7 was > 200 µM each time.

On to `CCC(CC)C(=O)N1CCC(O)(Cn2cnc3cc(Cl)ccc3c2=O)CC1` [Example 9, 7-chloro-3-{[1-(2-ethylbutanoyl)-4-hydroxypiperidin-4-yl]methyl}-3,4-dihydroquinazolin-4-one], for which the IC50 was > 200 µM against UCH-L1, > 200 µM at UCH-L3, > 200 µM at Caspase 3 and 214 µM against USP7.

With `CC(Cc1cccs1)C(=O)N1CCC(O)(Cn2cnc3cc(Cl)ccc3c2=O)CC1` (stereo not drawn) [Example 11, 7-chloro-3-({4-hydroxy-1-[2-methyl-3-(thiophen-2-yl)propanoyl]piperidin-4-yl}methyl)-3,4-dihydroquinazolin-4-one], the concentration for half-maximal inhibition (IC50) was > 200 µM at UCH-L1, > 200 µM against UCH-L3, > 200 µM at Caspase 3 and 33 µM at USP7.

Regarding `CC(Cc1ccccc1)C(=O)N1CCC(O)(Cn2cnc3cc(Cl)ccc3c2=O)CC1` (stereo not drawn) [Example 14, 3-{[1-(2-benzylpropanoyl)-4-hydroxypiperidin-4-yl]methyl}-7-chloro-3,4-dihydroquinazolin-4-one], the half-maximal inhibitory concentration (IC50) against UCH-L1 is > 200 µM; against UCH-L3 it was > 200 µM; on Caspase 3, > 200 µM; on USP7, 29 µM.

As to `CC(C)C(=O)N1CCC(O)(Cn2cnc3ccccc3c2=O)CC1` [Example 6, 3-{[4-hydroxy-1-(2-methylpropanoyl)piperidin-4-yl]methyl}-3,4-dihydroquinazolin-4-one], the IC50 at UCH-L1, on UCH-L3, on Caspase 3 and at USP7 was > 200 µM in each case.

Consider `O=C(CCc1ccccc1)N1CCC(O)(Cn2cnc3ccccc3c2=O)CC1` [Example 1, 3-{[4-hydroxy-1-(3-phenylpropanoyl)piperidin-4-yl]methyl}-3,4-dihydroquinazolin-4-one], for which the half-inhibitory concentration (IC50) against UCH-L1 is > 200 µM; on UCH-L3, > 200 µM; against Caspase 3, > 200 µM; against USP7, 74 µM.

For the compound `CC(Cc1ccccc1)C(=O)N1CCC(O)(Cn2cnc3ccccc3c2=O)CC1` (stereo not drawn) [Example 13, 3-{[1-(2-benzylpropanoyl)-4-hydroxypiperidin-4-yl]methyl}-3,4-dihydroquinazolin-4-one], the half-inhibitory concentration (IC50) against UCH-L1, against UCH-L3 and at Caspase 3 was > 200 µM each time.

As for `O=C(CCC1CCCC1)N1CCC(O)(Cn2cnc3ccccc3c2=O)CC1` [Example 3, 3-{[1-(3-cyclopentylpropanoyl)-4-hydroxypiperidin-4-yl]methyl}-3,4-dihydroquinazolin-4-one], the concentration for half-maximal inhibition (IC50) on UCH-L1 was > 200 µM; against UCH-L3, > 200 µM; at Caspase 3, > 200 µM; on USP7 it was 175 µM.

With `CC(Cc1cccs1)C(=O)N1CCC(O)(Cn2cnc3ccccc3c2=O)CC1` (stereo not drawn) [Example 5, 3-({4-hydroxy-1-[2-methyl-3-(thiophen-2-yl)propanoyl]piperidin-4-yl}methyl)-3,4-dihydroquinazolin-4-one], the concentration for half-maximal inhibition (IC50) on UCH-L1 was > 200 µM; on UCH-L3, > 200 µM; against Caspase 3, > 200 µM; at USP7, 36 µM.

For the compound `COc1cc2ncn(CC3(O)CCN(C(=O)C(C)C)CC3)c(=O)c2cc1OC` [Example 7, 3-{[4-hydroxy-1-(2-methylpropanoyl)piperidin-4-yl]methyl}-6,7-dimethoxy-3,4-dihydroquinazolin-4-one], the IC50 is > 200 µM against UCH-L1, > 200 µM on UCH-L3, > 200 µM on Caspase 3 and 174 µM against USP7.

`O=C(CCc1cccs1)N1CCC(O)(Cn2cnc3ccccc3c2=O)CC1` [Example 12, 3-({4-hydroxy-1-[3-(thiophen-2-yl)propanoyl]piperidin-4-yl}methyl)-3,4-dihydroquinazolin-4-one]: the IC50 at UCH-L1 was > 200 µM; on UCH-L3, > 200 µM; on Caspase 3, > 200 µM; against USP7 it was 42 µM.

`O=C(CCc1ccccc1)N1CCC(O)(Cn2cnc3cc(Cl)ccc3c2=O)CC1` [Example 2, 7-chloro-3-{[4-hydroxy-1-(3-phenylpropanoyl)piperidin-4-yl]methyl}-3,4-dihydroquinazolin-4-one]: the half-maximal inhibitory concentration (IC50) is > 200 µM on UCH-L1, > 200 µM at UCH-L3, > 200 µM against Caspase 3 and 77 µM at USP7.

For the compound `O=C(CCC1CCCC1)N1CCC(O)(Cn2cnc3cc(Cl)ccc3c2=O)CC1` [Example 4, 7-chloro-3-{[1-(3-cyclopentylpropanoyl)-4-hydroxypiperidin-4-yl]methyl}-3,4-dihydroquinazolin-4-one], the half-inhibitory concentration (IC50) was > 200 µM on UCH-L1, > 200 µM on UCH-L3, > 200 µM on Caspase 3 and 173 µM against USP7.
